Data taken from publication PMC10517971, “An inverse agonist of orphan receptor GPR61 acts by a G protein-competitive allosteric mechanism” (Nature Communications, 2023).
Where “and” joins values, the source holds several entries; their conditions need not be identical. Equal values may be shown once. Read-outs that look alike come from different tables or passages of the source.

How the values were obtained:
human GPR61 V288A = molecular target: T1, human GPR61 V288A (Homo sapiens, UniProt Q9BZJ8, V288A); experiment: Functional cAMP assay (HTRF), transiently transfected CHO-K1 cells, GPR61 V288A mutant; assay type: cell-based; conditions: for IC50: Fig. 3e table
T1 construct: expressed in transfected cells; host or cells: CHO-K1, transient (Fugene6)
From the text: The human GPR61 (reference sequence NM_031936.4) cDNA was synthesized and subcloned into pcDNA5/FRT/TO (Thermo Fisher, Pittsburgh, PA). The pcDNA5/FRT/TO/ human GPR61 plasmid was then transfected into the Flp-In™-CHO Cell Line (Thermo Fisher, Pittsburgh, PA) and a doxycycline-inducible clonal cell line was selected (CHO TREx hGPR61 WT). Sequences encoding untagged and HiBit/hemagglutinin (HA)-tagged versions of the wild-type human GPR61 were synthesized and cloned into pcDNA3.1. The HiBit ([…]) and HA ([…]) tags were sequentially included after the N-terminal initiator methionine. Four single amino acid substitutions (N137A, R140A, V288A, N345A) were then introduced in the untagged and tagged human GPR61 constructs using site-specific mutagenesis. The nucleotide sequences of all receptor constructs were confirmed by automated DNA sequencing.
Parental CHO-K1 cells were maintained at 37 °C in a humidified environment (5% CO2) and grown in Dulbecco’s Modified Eagle Medium (DMEM) F-12 media (Gibco, 11320033) supplemented with 10% FBS, 1% Glutamax (Gibco, 35050061) and 100units/ml penicillin and streptomycin (Gibco, 15140122. Cells were dissociated using a cell dissociation solution (Gibco, 13151-014), counted, and resuspended in complete culture media without antibiotics. Cells were then transiently transfected using Fugene6 (Promega) in a 384-well plate format (Corning, 3570). For each well, 7500 cells were transfected with 5 ng of receptor plasmid, 20 ng of carrier DNA (Promega, PAE4881) and 0.075 μl Fugene6 in a final volume of 25 μl. Fugene6 and DNA were separately diluted in Optimem media (Gibco, 31985070) (1.25 μl final volume each). Fugene6 and DNA solutions were then combined and incubated for 15 min at room temperature. The cell containing solution (22.5 μl) was then added and transfection reactions were mixed and transferred to the assay plate. Following 24 h incubation at 37 °C, wells were rinsed once and 25 μl of HiBit assay buffer (Phenol-red free DMEM F-12 media containing 2% FBS) was added per well. Surface and total receptor expression was measured separately by adding 25 μl per well of the extracellular (Promega, PRN2421) and lytic (Promega, PRN3040) assay solutions, respectively. Plates were incubated for 10 min at room temperature on a shaker and luciferase activity was measured using an EnVision plate reader (Perkin Elmer, Chicago, IL). Expression was normalized as percent of the wild-type receptor signal. Statistical comparisons of expression levels observed with WT versus GPR61 mutants were made by one-way analysis of variance with Dunnett’s post hoc test.
A homogeneous Time-Resolved Fluorescence (HTRF) assay (Perkin Elmer, Dynamic2 kit #) was used to assess receptor basal and inverse agonist activity at human GPR61, GPR62, and GPR101. […]

Human PDE2A1 = Human PDE2A1 (Homo sapiens, UniProt O00408); experiment: Phosphodiesterase Assay (SPA); assay type: biochemical
Human PDE7B = Human PDE7B (Homo sapiens, UniProt Q9NP56); experiment: Phosphodiesterase Assay (SPA); assay type: biochemical
Nav1.5 (Peak) = Nav1.5 (Peak) (Homo sapiens, UniProt Q14524); experiment: Nav1.5 (peak current) ion channel profiling, Qube384 automated patch clamp (standard and extended protocol); assay type: cell-based
From the text: 105 hERG, Nav1.5 and Cav1.2 Ion Channel Profiling
106 Ionic curr ents wer e evalu ated in the whole-cell con figuration using the Qube384 automated planar
107 patch clamp platform (Sophion Bioscience A/S, Ballerup, Denmark). […]
116 HEPES, 2 Na2ATP, pH 7.2, 305 mOsM. […]
126 Nav1.5 current, from a holding potential of - 80 mV, a 200 ms prepulse to - 120 mV was used to
127 homogenize channel inactivation, followed by a 40 ms step to a test potential of - 15 mV.
128 Membrane potential was further depolarized to +40 mV for 200 ms to completely inactivate the
129 peak Nav1.5 current, followed by a ramp from +40 mV to - 80 mV (-1.2 mV/ms). This voltage
130 pattern was repeated at 0.1 Hz, with peak Nav1.5 defined as the maximum current during the step
131 to - 15 mV. All studies were conducted at 23° C.
132 Compounds were dissol ved and initially diluted in dimethyl sulfoxide (DMSO), with a final
133 dilution in external solution to generate final working concent rations. The final DMSO
134 concentration in all experiments was 0.33% (v/v).
135 For all protocols three vehicle periods each lasting 5 minutes were applied to establish a stable
136 baseline. For the standard protocol this was followed by the addition of increasing concentrations
137 of test compound, with each exposure lasting 5 minutes. For the “extended” protocol following
138 the three- vehi cle additional each well subsequentl y received a single concentration of compound.
139 This application was repeated three times for each well, via a flowthrough addition where the
140 solution was replaced wi th the same compound concentration with each addition. Each exposure
142 Patch clamp data were analyzed using Assay Software 6.4.72 (Sophion Bioscience A/S, Ballerup,
143 Denmark). Current amplitudes were determined by averaging the last 4 currents under each test
144 condition. The percentage inhibition of each compound was determined by taking the ratio of
145 current amplitude measured in the presence of various concentrations of the test compound
146 (ICompound) versus the vehicle control current (IVehicle):
148 A dose-response curve was generat ed and fit to the Hill equation by the Sophion Analyzer software
149 to determine an IC50 value for each compound. The minimum and the slope of the fit were free
150 fitted, with the top being fixed to 100% inhibition.
151 GABA Patch Clamp Assay
152 Compound effects on the human GABAA recepto r (α1β2γ2), stably express ed in human embryonic
153 kidney (HEK) cells, were examined in three modes of action: agonist, antagonist and positive
154 allosteric modulation (PAM) modes. Chloride currents evoked by the activation of the GABAA
155 recepto r wer e reco rded in the whole- cell patch clamp configuration with the automated Qube384®
156 platform (Sophion Bioscience A/S, Baltorpvej, Denmark). […]

T1 sequence (Q9BZJ8 whole entry V288A): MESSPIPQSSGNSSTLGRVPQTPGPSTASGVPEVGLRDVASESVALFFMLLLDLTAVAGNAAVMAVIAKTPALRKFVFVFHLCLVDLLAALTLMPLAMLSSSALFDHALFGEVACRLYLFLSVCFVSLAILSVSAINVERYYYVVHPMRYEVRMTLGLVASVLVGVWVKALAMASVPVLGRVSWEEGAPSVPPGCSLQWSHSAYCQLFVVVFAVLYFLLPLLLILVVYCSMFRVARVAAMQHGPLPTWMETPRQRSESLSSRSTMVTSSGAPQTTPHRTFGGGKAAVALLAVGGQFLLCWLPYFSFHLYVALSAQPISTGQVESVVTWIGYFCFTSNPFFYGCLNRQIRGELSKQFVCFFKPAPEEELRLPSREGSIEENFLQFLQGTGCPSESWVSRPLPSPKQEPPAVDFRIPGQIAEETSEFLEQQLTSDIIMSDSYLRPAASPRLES
Chain of Nav1.5 (Peak) (Q14524 whole entry): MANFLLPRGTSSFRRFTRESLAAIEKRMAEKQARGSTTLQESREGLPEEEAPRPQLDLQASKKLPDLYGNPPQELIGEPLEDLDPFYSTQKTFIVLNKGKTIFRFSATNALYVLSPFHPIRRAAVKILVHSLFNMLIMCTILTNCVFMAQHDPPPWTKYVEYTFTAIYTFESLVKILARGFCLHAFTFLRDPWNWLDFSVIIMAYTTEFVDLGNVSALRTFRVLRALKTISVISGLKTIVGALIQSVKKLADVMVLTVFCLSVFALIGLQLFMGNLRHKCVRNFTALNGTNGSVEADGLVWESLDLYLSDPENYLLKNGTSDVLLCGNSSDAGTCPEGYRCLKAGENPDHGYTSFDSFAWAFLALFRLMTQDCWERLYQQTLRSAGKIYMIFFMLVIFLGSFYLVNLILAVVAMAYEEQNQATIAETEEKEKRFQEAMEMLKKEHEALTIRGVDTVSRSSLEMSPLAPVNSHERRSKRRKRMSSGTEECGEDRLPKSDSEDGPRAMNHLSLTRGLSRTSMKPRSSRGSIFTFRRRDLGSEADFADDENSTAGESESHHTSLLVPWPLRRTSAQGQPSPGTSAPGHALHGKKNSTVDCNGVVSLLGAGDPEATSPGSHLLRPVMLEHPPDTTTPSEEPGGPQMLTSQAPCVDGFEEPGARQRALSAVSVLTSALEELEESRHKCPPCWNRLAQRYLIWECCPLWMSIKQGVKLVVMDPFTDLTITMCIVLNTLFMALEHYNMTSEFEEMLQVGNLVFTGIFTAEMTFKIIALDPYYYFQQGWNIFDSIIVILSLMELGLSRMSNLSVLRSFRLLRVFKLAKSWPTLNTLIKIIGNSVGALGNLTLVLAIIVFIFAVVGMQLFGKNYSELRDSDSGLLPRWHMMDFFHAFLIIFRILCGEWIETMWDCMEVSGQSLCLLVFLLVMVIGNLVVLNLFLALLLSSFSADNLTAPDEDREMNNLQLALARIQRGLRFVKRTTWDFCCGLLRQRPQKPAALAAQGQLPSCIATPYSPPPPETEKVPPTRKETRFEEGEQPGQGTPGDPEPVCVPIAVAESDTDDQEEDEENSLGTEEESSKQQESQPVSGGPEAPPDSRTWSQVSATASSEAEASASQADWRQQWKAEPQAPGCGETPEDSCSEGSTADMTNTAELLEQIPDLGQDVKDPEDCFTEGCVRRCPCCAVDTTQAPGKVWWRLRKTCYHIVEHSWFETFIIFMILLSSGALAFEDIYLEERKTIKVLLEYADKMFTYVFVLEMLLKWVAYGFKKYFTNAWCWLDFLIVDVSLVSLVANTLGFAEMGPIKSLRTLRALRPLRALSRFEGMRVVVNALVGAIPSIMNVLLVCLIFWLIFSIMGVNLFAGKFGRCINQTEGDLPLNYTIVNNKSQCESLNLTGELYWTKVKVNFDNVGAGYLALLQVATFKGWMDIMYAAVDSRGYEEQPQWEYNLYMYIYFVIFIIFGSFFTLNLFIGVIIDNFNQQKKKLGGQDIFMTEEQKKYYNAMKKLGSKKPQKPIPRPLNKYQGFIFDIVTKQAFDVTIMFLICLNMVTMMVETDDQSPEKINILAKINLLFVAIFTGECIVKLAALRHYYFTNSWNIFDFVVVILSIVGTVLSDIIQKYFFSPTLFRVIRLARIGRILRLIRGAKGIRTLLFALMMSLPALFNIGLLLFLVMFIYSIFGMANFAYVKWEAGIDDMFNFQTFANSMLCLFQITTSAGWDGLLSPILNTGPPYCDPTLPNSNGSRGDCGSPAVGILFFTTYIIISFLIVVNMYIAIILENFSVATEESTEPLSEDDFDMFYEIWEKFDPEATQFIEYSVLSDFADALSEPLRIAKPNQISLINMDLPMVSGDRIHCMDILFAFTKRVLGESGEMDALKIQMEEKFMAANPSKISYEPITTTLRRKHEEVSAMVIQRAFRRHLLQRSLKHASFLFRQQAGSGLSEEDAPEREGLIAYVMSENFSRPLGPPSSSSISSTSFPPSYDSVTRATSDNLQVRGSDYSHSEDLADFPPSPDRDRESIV
Chain of Human PDE7B (Q9NP56 whole entry): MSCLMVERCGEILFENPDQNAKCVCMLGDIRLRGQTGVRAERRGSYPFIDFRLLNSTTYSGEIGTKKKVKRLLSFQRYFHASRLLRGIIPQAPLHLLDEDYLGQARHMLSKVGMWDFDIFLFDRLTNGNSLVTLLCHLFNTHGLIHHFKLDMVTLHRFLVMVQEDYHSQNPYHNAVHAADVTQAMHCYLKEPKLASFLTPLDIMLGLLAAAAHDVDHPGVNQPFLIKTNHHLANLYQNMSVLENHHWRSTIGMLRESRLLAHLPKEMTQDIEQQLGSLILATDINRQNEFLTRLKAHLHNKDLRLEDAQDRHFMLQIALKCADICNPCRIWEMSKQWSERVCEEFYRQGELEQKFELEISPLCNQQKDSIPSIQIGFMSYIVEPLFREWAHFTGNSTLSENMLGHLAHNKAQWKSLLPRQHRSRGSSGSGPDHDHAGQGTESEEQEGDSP
Chain of Human PDE2A1 (O00408 1-920 isoform O00408-2): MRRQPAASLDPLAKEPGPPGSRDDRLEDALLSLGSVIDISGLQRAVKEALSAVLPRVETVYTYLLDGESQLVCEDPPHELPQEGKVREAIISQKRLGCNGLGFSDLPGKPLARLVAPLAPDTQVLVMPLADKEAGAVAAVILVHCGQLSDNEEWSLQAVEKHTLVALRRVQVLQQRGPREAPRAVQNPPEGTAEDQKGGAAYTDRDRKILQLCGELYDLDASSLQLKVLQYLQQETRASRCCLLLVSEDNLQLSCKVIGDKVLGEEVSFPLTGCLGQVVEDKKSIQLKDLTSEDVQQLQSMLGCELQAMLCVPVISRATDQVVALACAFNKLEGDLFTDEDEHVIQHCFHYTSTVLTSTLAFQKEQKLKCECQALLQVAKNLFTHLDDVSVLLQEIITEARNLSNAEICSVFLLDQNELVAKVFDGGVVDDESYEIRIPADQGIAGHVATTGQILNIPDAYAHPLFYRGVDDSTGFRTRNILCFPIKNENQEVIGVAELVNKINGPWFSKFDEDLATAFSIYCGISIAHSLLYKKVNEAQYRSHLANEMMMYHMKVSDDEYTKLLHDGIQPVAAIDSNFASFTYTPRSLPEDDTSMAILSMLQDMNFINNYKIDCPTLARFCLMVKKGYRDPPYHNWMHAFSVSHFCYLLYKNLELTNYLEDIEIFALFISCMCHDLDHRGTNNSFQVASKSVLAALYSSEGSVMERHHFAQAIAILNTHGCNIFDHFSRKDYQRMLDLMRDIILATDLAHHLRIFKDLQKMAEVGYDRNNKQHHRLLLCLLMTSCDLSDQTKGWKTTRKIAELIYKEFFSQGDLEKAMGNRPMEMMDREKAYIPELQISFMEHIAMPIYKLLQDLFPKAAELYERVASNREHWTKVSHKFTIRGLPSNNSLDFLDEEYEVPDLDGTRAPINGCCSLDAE

## CCOc1cc(C)nc(N(CCOC)S(=O)(=O)c2ccc(NCc3c(F)cncc3F)nc2OC)n1 [Compound 1]
Human GPR61 V288A; HiBit-tagged, read-out: GPR61 cAMP IC50 (95% CI), V288A HiBit-tagged
  IC50: 0.4 µM
Human GPR61 V288A; untagged, read-out: GPR61 cAMP IC50 (95% CI), V288A Untagged
  IC50: 0.406 µM
Human GPR61 V288A; HiBit V288A, concentration -6
  cAMP response (Figure 3e source data): 0.67 and 0.63 and 0.87 and 1.10 and 0.64 and 0.60
Human GPR61 V288A; V288A mutant vs wild-type
  sensitivity of the receptor to inverse agonism in the cAMP assay: less sensitive
Human PDE2A1
  IC50: > 200 µM
Human PDE7B
  IC50: 6.27 µM
Nav1.5 (Peak)
  IC50: > 100000 nM
Nav1.5 (Peak); read-out: Ion Channel Extended Protocol IC50 (nM), Period 1st, Nav1.5 (Peak), extended protocol, 1st period
  IC50: > 100000 nM
Nav1.5 (Peak); read-out: Ion Channel Extended Protocol IC50 (nM), Period 2nd, Nav1.5 (Peak), extended protocol, 2nd period
  IC50: > 100000 nM
Nav1.5 (Peak); read-out: Ion Channel Extended Protocol IC50 (nM), Period 3rd, Nav1.5 (Peak), extended protocol, 3rd period
  IC50: > 100000 nM
